Experimental data: patent US20190314352A1, “ADMINISTRATION OF DIPEPTIDYL PEPTIDASE INHIBITORS” (Takeda Pharmaceutical Company Limited, priority 2005, published 2019)

What was measured:
[1] = tested on: newly diagnosed type II diabetes patients; experiment: Glycosylated hemoglobin (HbA1c), 14-day repeat-dose placebo-controlled study; format: in vivo, human; settings: one time per day at the specified dosage levels, extended treatment; expected
[2] = tested on: newly diagnosed type II diabetes patients; experiment: Fasting fructosamine, 14-day repeat-dose placebo-controlled study; format: in vivo, human; settings: for Fasting Fructosamine, Day 15 Actual, Mean: type II diabetes patients; for Fasting Fructosamine, Difference in Change from Baseline from Placebo, LS Mean: Day 15, ANCOVA; for Fasting Fructosamine, Day 15 Change from Baseline, Mean: baseline Day −7
Method: (§1) Blood samples were collected on Days 6, 16, 17, and 21 for analysis of efficacy based on change in mean 4-hour postprandial plasma glucose (Cavg) from Day −1 to Day 14. Secondary efficacy endpoints included mean 4-hour prandial fructosamine, and glycosylated hemoglobin (HbA1c). Data was collected at each study visit. Inhibition of DPPIV activity was also determined using an assay validated for human plasma samples.

[3] = tested on: newly diagnosed type II diabetes patients; experiment: 4-hour postprandial plasma glucose (Cavg) following breakfast, 14-day repeat-dose placebo-controlled study; format: in vivo, human; settings: for mean reduction from baseline in Cavg B / mean reduction in Cavg B calculated as a percent change: fourteen days of treatment; for 4-hour postprandial plasma glucose following breakfast, Day 14 Actual, Mean: 14 days; for 4-hour postprandial plasma glucose, Difference in Change from Baseline from Placebo, LS Mean: Day 14, ANCOVA; for 4-hour postprandial plasma glucose following breakfast, Day 14 Change from Baseline, Mean: baseline Day −1
Excerpt: Data was collected at each study visit.
The primary efficacy analysis was based on change in mean 4-hour prandial glucose concentrations (Cavg) from Day −1 to Day 14. Table A summarizes the primary efficacy endpoint measured following breakfast.

[4] = tested on: newly diagnosed type II diabetes patients; experiment: Glycosylated hemoglobin (HbA1c), 14-day repeat-dose placebo-controlled study; format: in vivo, human; settings: for HbA1c, Difference in Change from Baseline from Placebo, LS Mean: Day 15, ANCOVA; for HbA1c, Day 15 Change from Baseline, Mean: baseline Day −7
Method: as §1

[5] = tested on: Male db/db (BKS.Cg-+Lepr^db/+Lepr^db) mice; experiment: Co-administration with pioglitazone: glycosylated hemoglobin levels in mice; format: in vivo; settings: 21 days in powder chow: 0.03% (w/w) benzoate salt of Compound I and/or 0.0075% (w/w) pioglitazone hydrochloride, n=8, mean ± SD
Method: Male db/db (BKS.Cg-+Lepr^db/+Lepr^db) mice (6 weeks of age, CLEA Japan (Tokyo, Japan)) were divided into 4 groups (n=8 in each group) comprising Group A to Group D. Group A had free access to CE-2 powder chow (CLEA Japan) for 21 days. […] Group C had free access to CE-2 powder chow (CLEA Japan) containing 0.0075% (w/w) of pioglitazone hydrochloride for 21 days. The dose of pioglitazone in Group C was calculated to be 15.4±1.5 (mean±SD) mg/kg body weight/day. […] During 21 days of administration of the powder chow, there were not significant differences in the administration amount of the powder chow in the above 4 groups. After 21 days of administration of the powder chow, blood samples were taken from the orbital veins of the mice by capillary pipette under feeding condition, and Glycosylated hemoglobin levels were measured by HPLC-based method using TOSOH automated GHb Analyzer HLC-723 G7 (TOSOH, Japan).
The values in the table means average (n=8)±standard deviation.

[6] = tested on: newly diagnosed type II diabetes patients; experiment: Fasting fructosamine, 14-day repeat-dose placebo-controlled study; format: in vivo, human; settings: for Fasting Fructosamine, Difference in Change from Baseline from Placebo, LS Mean: Day 15, ANCOVA

## Cn1c(=O)cc(N2CCC[C@@H](N)C2)n(Cc2ccccc2C#N)c1=O [Compound I, 2-[[6-[(3R)-3-amino-1-piperidinyl]-3,4-dihydro-3-methyl-2,4-dioxo-1(2H)-pyrimidinyl]methyl]-benzonitrile]
[1]
  decrease of hemoglobin A1c level compared to placebo control: greater than 0.5%
[2]; 25 mg/day for 14 days
  Fasting Fructosamine, Day 15 Actual, Mean: 310.7 µmol/L
[2]; 25 mg/day
  Fasting Fructosamine, Difference in Change from Baseline from Placebo, LS Mean: -9.6 µmol/L
[2]; 100 mg/day for 14 days
  Fasting Fructosamine, Day 15 Actual, Mean: 263.9 µmol/L
[2]; 100 mg/day
  Fasting Fructosamine, Day 15 Change from Baseline, Mean: -25.6 µmol/L
[2]; 400 mg/day for 14 days
  Fasting Fructosamine, Day 15 Actual, Mean: 312.6 µmol/L
[2]; 400 mg/day
  Fasting Fructosamine, Day 15 Change from Baseline, Mean: -19.9 µmol/L
[2]; All Active
  Fasting Fructosamine, Difference in Change from Baseline from Placebo, LS Mean: -28.6 µmol/L
  Fasting Fructosamine, Day 15 Change from Baseline, Mean: -12.9 µmol/L
[3]; 25 mg group
  mean reduction from baseline in Cavg B: 33 mg/dL
  mean reduction in Cavg B calculated as a percent change: 15%
[3]; 25 mg/day, type II diabetes patients
  4-hour postprandial plasma glucose following breakfast, Day 14 Actual, Mean: 203.2 mg/dL
[3]; 25 mg/day
  4-hour postprandial plasma glucose, Difference in Change from Baseline from Placebo, LS Mean: -39.9 mg/dL
  4-hour postprandial plasma glucose following breakfast, Day 14 Change from Baseline, Mean: -32.5 mg/dL
[3]; 100 mg group
  mean reduction from baseline in Cavg B: 37 mg/dL
  mean reduction in Cavg B calculated as a percent change: 17%
[3]; 100 mg/day, type II diabetes patients
  4-hour postprandial plasma glucose following breakfast, Day 14 Actual, Mean: 173.5 mg/dL
[3]; 100 mg/day
  4-hour postprandial plasma glucose, Difference in Change from Baseline from Placebo, LS Mean: -48.6 mg/dL
  4-hour postprandial plasma glucose following breakfast, Day 14 Change from Baseline, Mean: -37.2 mg/dL
[3]; 400 mg group
  mean reduction from baseline in Cavg B: 66 mg/dL
  mean reduction in Cavg B calculated as a percent change: 24%
[3]; 400 mg/day, type II diabetes patients
  4-hour postprandial plasma glucose following breakfast, Day 14 Actual, Mean: 198.6 mg/dL
[3]; 400 mg/day
  4-hour postprandial plasma glucose, Difference in Change from Baseline from Placebo, LS Mean: -68.3 mg/dL
  4-hour postprandial plasma glucose following breakfast, Day 14 Change from Baseline, Mean: -65.6 mg/dL
[3]; All Active (25, 100, 400 mg/day combined)
  4-hour postprandial plasma glucose following breakfast, Day 14 Actual, Mean: 191.8 mg/dL
[3]; All Active
  4-hour postprandial plasma glucose, Difference in Change from Baseline from Placebo, LS Mean: -52.3 mg/dL
  4-hour postprandial plasma glucose following breakfast, Day 14 Change from Baseline, Mean: -44.3 mg/dL
[4]; 25 mg/day for 14 days, type II diabetes patients
  Glycosylated Hemoglobin (HbA1c), Day 15 Actual, Mean: 7.76%
[4]; 25 mg/day
  HbA1c, Difference in Change from Baseline from Placebo, LS Mean: −0.27%
  HbA1c, Day 15 Change from Baseline, Mean: −0.22%
[4]; 100 mg/day for 14 days, type II diabetes patients
  Glycosylated Hemoglobin (HbA1c), Day 15 Actual, Mean: 7.25%
[4]; 100 mg/day
  HbA1c, Difference in Change from Baseline from Placebo, LS Mean: −0.45%
  HbA1c, Day 15 Change from Baseline, Mean: −0.40%
[4]; 400 mg/day for 14 days, type II diabetes patients
  Glycosylated Hemoglobin (HbA1c), Day 15 Actual, Mean: 7.82%
[4]; 400 mg/day
  HbA1c, Difference in Change from Baseline from Placebo, LS Mean: −0.32%
  HbA1c, Day 15 Change from Baseline, Mean: −0.28%
[4]; All Active, 14 days
  Glycosylated Hemoglobin (HbA1c), Day 15 Actual, Mean: 7.60%
[4]; All Active
  HbA1c, Difference in Change from Baseline from Placebo, LS Mean: −0.35%
  HbA1c, Day 15 Change from Baseline, Mean: −0.30%
[5]
  Glycosylated Hemoglobin (%): 5.8 ± 0.5%
[6]; 25 mg/day, baseline Day −7
  Fasting Fructosamine, Day 15 Change from Baseline, Mean: 6.3 µmol/L
[6]; 100 mg/day
  Fasting Fructosamine, Difference in Change from Baseline from Placebo, LS Mean: -42.9 µmol/L
[6]; 400 mg/day
  Fasting Fructosamine, Difference in Change from Baseline from Placebo, LS Mean: -33.2 µmol/L
[6]; All Active, 14 days
  Fasting Fructosamine, Day 15 Actual, Mean: 295.3 µmol/L

## CCc1ccc(CCOc2ccc(CC3SC(=O)NC3=O)cc2)nc1 (stereo not drawn) [Pioglitazone, 5-{[4-(2-(5-ethyl-2-pyridyl)ethoxy)phenyl]-methyl}-thiazolidine-2,4-dione, reference compound]
[5]
  Glycosylated Hemoglobin (%): 5.0 ± 0.7%
